In PMC2909451 (European journal of pharmaceutical sciences : official …, 2010):
Counter-ions that a name gives are not always drawn. Like-named read-outs stand apart in the source and are kept apart here.

Legend:
[1] = biological target: T1, human apical sodium-dependent transporter (SLC10A2, ASBT) (Homo sapiens, UniProt Q12908)
T1 sequence (Q12908 1-348): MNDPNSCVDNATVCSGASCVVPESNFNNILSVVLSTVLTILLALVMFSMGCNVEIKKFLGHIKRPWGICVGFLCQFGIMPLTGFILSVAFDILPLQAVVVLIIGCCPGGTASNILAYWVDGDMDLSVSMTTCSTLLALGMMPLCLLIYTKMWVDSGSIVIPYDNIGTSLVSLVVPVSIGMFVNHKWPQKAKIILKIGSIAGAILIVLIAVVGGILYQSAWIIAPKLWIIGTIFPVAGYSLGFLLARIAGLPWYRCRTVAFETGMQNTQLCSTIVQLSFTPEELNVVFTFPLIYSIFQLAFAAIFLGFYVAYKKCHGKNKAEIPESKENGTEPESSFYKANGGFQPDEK

[2] = biological target: T1, human apical sodium-dependent transporter (SLC10A2, ASBT); test: ASBT cis-inhibition of taurocholate uptake in ASBT-MDCK cells; conditions: for potency estimated from few doses: read-out: Ki estimated from one concentration; for inhibition at 25 µM / inhibition at 200 µM / inhibition at 1000 µM / inhibition at 5000 µM / inhibition at 10 µM / inhibition at 5 µM: read-out: percent taurocholate inhibited at the highest inhibitor concentration
[3] = Ki, inhibitor concentration range 0-50 μM, mean±S.E.
[4] = Ki, inhibitor concentration range 0-100 μM, mean±S.E.
[5] = Ki, inhibitor concentration range 0-200 μM, mean±S.E.
[6] = Ki, inhibitor concentration range 0-500 μM, mean±S.E.
[7] = Ki, inhibitor concentration range 0-1000 μM, mean±S.E.
[8] = Ki, inhibitor concentrations 0, 25 μM (Table 2), mean±S.E.
[9] = Reference Ki, from the comprehensive inhibition profile
[10] = Ki, inhibitor concentration range 0-25 μM, mean±S.E.
[11] = Ki, inhibitor concentration range 0-5000 μM, mean±S.E.
[12] = Ki, inhibitor concentration range 0-10 μM, mean±S.E.
[13] = Ki, inhibitor concentration range 0-5 μM, mean±S.E.

CC(C)(C#N)c1cc(Cn2cncn2)cc(C(C)(C)C#N)c1 [Anastrozole]
inhibition ([1]; 50 µM): 12% | inhibition ([1]; 100 µM): 13.2% | inhibition ([1]; 500 µM): 35.6% | Ki [2, 3]: 231 ± 87 µM | Ki [2, 4]: 451 ± 163 µM | Ki [2, 5]: 700 ± 196 µM | Ki [2, 6]: 686 ± 99 µM | Ki [2, 7]: 745 ± 74 µM | Ki [2, 8]: 153 ± 79 µM | Ki [2, 9]: 745 µM | potency estimated from few doses [2]: 601 ± 69 µM | inhibition at 25 µM [2]: 9.73% | inhibition at 200 µM [2]: 18% | inhibition at 1000 µM [2]: 48.3%

NS(=O)(=O)c1cc2c(cc1C(F)(F)F)NC(Cc1ccccc1)NS2(=O)=O (stereo not shown) [Bendroflumethiazide, bendroflumethiazide]
inhibition ([1]; 50 µM): 30.5% | inhibition ([1]; 100 µM): 37.6% | inhibition ([1]; 500 µM): 63.6% | Ki [2, 10]: 166 ± 115 µM | Ki [2, 3]: 84.3 ± 20.7 µM | Ki [2, 4]: 96.4 ± 16.2 µM | Ki [2, 5]: 121 ± 18 µM | Ki [2, 6]: 144 ± 20 µM | Ki [2, 7]: 149 ± 18 µM | Ki [2, 9]: 149 µM | potency estimated from few doses [2]: 188 ± 21 µM | inhibition at 25 µM [2]: 8.86% | inhibition at 200 µM [2]: 46.6% | inhibition at 1000 µM [2]: 79.4%

CCCCNc1cc(C(=O)O)cc(S(N)(=O)=O)c1Oc1ccccc1 [Bumetanide, bumetanide]
inhibition ([1]; 50 µM): 12.2% | inhibition ([1]; 100 µM): 15.6% | inhibition ([1]; 500 µM): 48% | Ki [2, 10]: 211 ± 108 µM | Ki [2, 3]: 232 ± 60 µM | Ki [2, 4]: 343 ± 75 µM | Ki [2, 5]: 299 ± 33 µM | Ki [2, 6]: 338 ± 28 µM | Ki [2, 7]: 341 ± 22 µM | Ki [2, 9]: 341 µM | potency estimated from few doses [2]: 354 ± 35 µM | inhibition at 25 µM [2]: 7.1% | inhibition at 200 µM [2]: 32.1% | inhibition at 1000 µM [2]: 65.6%

COCc1c(C(C)C)nc(C(C)C)c(/C=C/[C@@H](O)C[C@@H](O)CC(=O)O)c1-c1ccc(F)cc1 [Cerivastatin, cerivastatin]
potency estimated from few doses [2]: 47.4 ± 22.5 µM

CCCCOc1cc(C(=O)NCCN(CC)CC)c2ccccc2n1 [Dibucaine hydrochloride, dibucaine hydrochloride]
inhibition ([1]; 50 µM): 27.6% | inhibition ([1]; 100 µM): 43.8% | inhibition ([1]; 500 µM): 73.7% | Ki [2, 3]: 93.2 ± 12.5 µM | Ki [2, 4]: 85.8 ± 7.6 µM | Ki [2, 5]: 96.2 ± 7.7 µM | Ki [2, 6]: 101 ± 7 µM | Ki [2, 7]: 101 ± 6 µM | Ki [2, 8]: 140 ± 17 µM | Ki [2, 9]: 101 µM | potency estimated from few doses [2]: 116 ± 3 µM | inhibition at 25 µM [2]: 10.5% | inhibition at 200 µM [2]: 53.9% | inhibition at 1000 µM [2]: 86.7%

COc1ccc([C@@H]2Sc3ccccc3N(CCN(C)C)C(=O)[C@@H]2OC(C)=O)cc1 [Diltiazem hydrochloride, diltiazem hydrochloride]
inhibition ([1]; 50 µM): 19.5% | inhibition ([1]; 100 µM): 26.5% | inhibition ([1]; 500 µM): 52.4% | Ki [2, 3]: 124 ± 16 µM | Ki [2, 4]: 174 ± 26 µM | Ki [2, 5]: 221 ± 28 µM | Ki [2, 6]: 273 ± 30 µM | Ki [2, 7]: 301 ± 28 µM | Ki [2, 8]: 86.4 ± 11.9 µM | Ki [2, 9]: 301 µM | potency estimated from few doses [2]: 296 ± 22 µM | inhibition at 25 µM [2]: 16% | inhibition at 200 µM [2]: 36.4% | inhibition at 1000 µM [2]: 66.1%

CC(C)n1c(/C=C/C(O)CC(O)CC(=O)O)c(-c2ccc(F)cc2)c2ccccc21 (stereo not shown) [Fluvastatin, fluvastatin]
inhibition ([1]; 50 µM): 52.6% | inhibition ([1]; 100 µM): 77% | inhibition ([1]; 500 µM): 95.5% | Ki [2, 10]: 24.5 ± 2.4 µM | Ki [2, 3]: 27.4 ± 2 µM | Ki [2, 4]: 24.9 ± 1.9 µM | Ki [2, 5]: 25.1 ± 1.6 µM | Ki [2, 6]: 24.9 ± 1.6 µM | Ki [2, 7]: 24.8 ± 1.4 µM | Ki [2, 11]: 24.8 ± 1.3 µM | Ki [2, 9]: 24.8 µM | potency estimated from few doses [2]: 29.7 ± 2.4 µM | inhibition at 25 µM [2]: 40.2% | inhibition at 200 µM [2]: 82.9% | inhibition at 1000 µM [2]: 96.2% | inhibition at 5000 µM [2]: 99.8%

COc1ccc2c(c1)c(CC(=O)O)c(C)n2C(=O)c1ccc(Cl)cc1 [Indomethacin, indomethacin]
inhibition ([1]; 50 µM): 27.3% | inhibition ([1]; 100 µM): 46.8% | inhibition ([1]; 500 µM): 76.4% | Ki [2, 12]: 52.6 ± 13.6 µM | Ki [2, 10]: 53.9 ± 8.9 µM | Ki [2, 3]: 80.5 ± 13.7 µM | Ki [2, 4]: 77.9 ± 8.4 µM | Ki [2, 5]: 84.2 ± 7.3 µM | Ki [2, 6]: 87.8 ± 6.8 µM | Ki [2, 7]: 86.4 ± 6 µM | Ki [2, 9]: 86.4 µM | potency estimated from few doses [2]: 86.9 ± 12.5 µM | inhibition at 10 µM [2]: 11% | inhibition at 25 µM [2]: 23.2% | inhibition at 200 µM [2]: 59.1% | inhibition at 1000 µM [2]: 89.5%

COC(=O)C1=C(C)NC(C)=C(C(=O)OC(C)C)C1c1cccc2nonc12 (stereo not shown) [Isradipine, isradipine]
inhibition ([1]; 50 µM): 49.7% | inhibition ([1]; 100 µM): 68.1% | Ki [2, 13]: 17.5 ± 6.6 µM | Ki [2, 12]: 53.4 ± 35.1 µM | Ki [2, 10]: 60.4 ± 19.6 µM | Ki [2, 3]: 42.7 ± 7.4 µM | Ki [2, 4]: 38.8 ± 5.1 µM | Ki [2, 5]: 36.4 ± 4.2 µM | Ki ([2]; Ki, inhibitor concentration range 0-[…], mean±S.E.): 9.55 ± 3.67 µM | Ki [2, 9]: 36.4 µM | potency estimated from few doses [2]: 32.7 ± 2.7 µM | inhibition at 5 µM [2]: 14.4% | inhibition at 10 µM [2]: 12.1% | inhibition at 25 µM [2]: 25.7% | inhibition at 200 µM [2]: 82.5%

CC(C(=O)O)c1cccc(C(=O)c2ccccc2)c1 (stereo not shown) [Ketoprofen, ketoprofen]
inhibition ([1]; 500 µM): 49.7% | Ki [2, 5]: 255 ± 14 µM | Ki [2, 6]: 305 ± 26 µM | Ki [2, 7]: 328 ± 24 µM | Ki [2, 11]: 310 ± 28 µM | Ki [2, 9]: 310 µM | potency estimated from few doses [2]: 336 ± 26 µM | inhibition at 200 µM [2]: 34.2% | inhibition at 1000 µM [2]: 64.7% | inhibition at 5000 µM [2]: 98%

Cc1c(OCC(F)(F)F)ccnc1C[S+]([O-])c1nc2ccccc2[nH]1 (stereo not shown) [Lansoprazole]
inhibition ([1]; 50 µM): 29.5% | inhibition ([1]; 100 µM): 39.4% | inhibition ([1]; 500 µM): 73.6% | Ki [2, 10]: 40.9 ± 7.09 µM | Ki [2, 3]: 62.1 ± 11.3 µM | Ki [2, 4]: 86.9 ± 14.7 µM | Ki [2, 5]: 134 ± 25 µM | Ki [2, 6]: 132 ± 19 µM | Ki [2, 7]: 120 ± 16 µM | Ki ([2]; Ki, inhibitor concentrations 0, 10 μM (Table 4), mean±S.E.): 103 ± 37 µM | Ki [2, 9]: 120 µM | potency estimated from few doses [2]: 116 ± 2 µM | inhibition at 10 µM [2]: 5.99% | inhibition at 25 µM [2]: 30.2% | inhibition at 200 µM [2]: 44.4% | inhibition at 1000 µM [2]: 91.9%

CC(C)OC(=O)CCC/C=C\C[C@@H]1[C@@H](CC[C@@H](O)CCc2ccccc2)[C@H](O)C[C@@H]1O [Latanoprost, latanoprost]
inhibition ([1]; 50 µM): 60.3% | inhibition ([1]; 100 µM): 79.4% | inhibition ([1]; 500 µM): 96.2% | Ki [2, 13]: 19.3 ± 6.7 µM | Ki [2, 12]: 12.2 ± 2.9 µM | Ki [2, 10]: 14 ± 2.8 µM | Ki [2, 3]: 15.1 ± 2.4 µM | Ki [2, 4]: 14.3 ± 2 µM | Ki [2, 5]: 13.6 ± 1.9 µM | Ki [2, 6]: 13.3 ± 1.9 µM | Ki [2, 9]: 13.3 µM | potency estimated from few doses [2]: 17.3 ± 2.7 µM | inhibition at 5 µM [2]: 28.1% | inhibition at 10 µM [2]: 34.3% | inhibition at 25 µM [2]: 46.9% | inhibition at 200 µM [2]: 90%

CN1CCCCC1CCN1c2ccccc2Sc2ccc([S+](C)[O-])cc21 (stereo not shown) [Mesoridazine besylate]
inhibition ([1]; 50 µM): 31.3% | inhibition ([1]; 100 µM): 52.5% | inhibition ([1]; 500 µM): 79.8% | Ki [2, 3]: 69.9 ± 19.5 µM | Ki [2, 4]: 59.6 ± 9.9 µM | Ki [2, 5]: 63.6 ± 8.2 µM | Ki [2, 6]: 64.9 ± 7.3 µM | Ki [2, 7]: 63.5 ± 6.6 µM | Ki [2, 9]: 63.5 µM | potency estimated from few doses [2]: 59.5 ± 7.3 µM | inhibition at 200 µM [2]: 62.2% | inhibition at 1000 µM [2]: 94%
